Eight compounds from US8101642B2, “3-substituted propanamine compounds” (SK Biopharmaceuticals Co., Ltd., priority 2008, dated 2012) can be followed below.

SMILES strings stand for the structures.

Experiment [1] addresses T1, human serotonin transporter (Homo sapiens, UniProt P31645).
T1 construct: expressed in transfected cells; host or cells: HEK-293
As to the kind of experiment: Serotonin transporter reuptake inhibition assay ([3H]Serotonin uptake). Type of experiment: cell-based. The conditions noted are these: recombinant HEK-293 cells with human serotonin transporter; for inhibition at 0.1 µM: HEK293, 100 nM, read-out: Inhibition % at 100 nM 5-HT reuptake. Here is the method:
Serotonin Transporter Reuptake Inhibition Assay
The recombinant HEK-293 cells with human serotonin transporter were plated. Test compounds described in table 1 were pre-incubated with cells (2×10^5/ml) in modified Tris-HEPES buffer pH 7.1 for 20 minutes at 25° C. and then they were incubated for additional 10 minutes after 65 nM of [^3H]Serotonin was added. Bound cells were filtered and counted to determine [^3H]Serotonin uptake. Reduction of [^3H]Serotonin uptake by 50 percent or more (≧50%) relative to 10 μM fluoxetine indicates significant inhibitory activity.

Experiment [2] has as its target T2, human recombinant norepinephrine transporter (Homo sapiens, UniProt P23975).
T2 construct: expressed in transfected cells; host or cells: MDCK
Description: Norepinephrine transporter reuptake inhibition assay ([3H]Norepinephrine uptake). Type of experiment: cell-based. To be noted: for inhibition at 0.1 µM: 100 nM, MDCK cells with human recombinant norepinephrine transporter, read-out: Inhibition % at 100 nM NE reuptake. The procedure: Norepinephrine Transporter Reuptake Inhibition Assay
MDCK cells with stably expressed human recombinant norepinephrine transporter were plated one day. Test compounds were pre-incubated with cells (2×10^5/ml) in modified Tris-HEPES buffer pH 7.1 for 20 minutes at 25° C. and then they were incubated for additional 10 minutes after 25 nM of [^3H]Norepinephrine was added. A lysate was obtained from solubilized cells and the filtered lysate was counted to determine [^3H]Norepinephrine uptake. Reduction of [^3H]Norepinephrine uptake by 50 percent or more (≧50%) relative to 10 μM desipramine indicates significant inhibitory activity.

The target in experiment [3] is T3, human recombinant dopamine transporter (Homo sapiens, UniProt Q01959).
T3 construct: expressed in transfected cells; host or cells: CHO-K1
T3 sequence (Q01959 whole entry): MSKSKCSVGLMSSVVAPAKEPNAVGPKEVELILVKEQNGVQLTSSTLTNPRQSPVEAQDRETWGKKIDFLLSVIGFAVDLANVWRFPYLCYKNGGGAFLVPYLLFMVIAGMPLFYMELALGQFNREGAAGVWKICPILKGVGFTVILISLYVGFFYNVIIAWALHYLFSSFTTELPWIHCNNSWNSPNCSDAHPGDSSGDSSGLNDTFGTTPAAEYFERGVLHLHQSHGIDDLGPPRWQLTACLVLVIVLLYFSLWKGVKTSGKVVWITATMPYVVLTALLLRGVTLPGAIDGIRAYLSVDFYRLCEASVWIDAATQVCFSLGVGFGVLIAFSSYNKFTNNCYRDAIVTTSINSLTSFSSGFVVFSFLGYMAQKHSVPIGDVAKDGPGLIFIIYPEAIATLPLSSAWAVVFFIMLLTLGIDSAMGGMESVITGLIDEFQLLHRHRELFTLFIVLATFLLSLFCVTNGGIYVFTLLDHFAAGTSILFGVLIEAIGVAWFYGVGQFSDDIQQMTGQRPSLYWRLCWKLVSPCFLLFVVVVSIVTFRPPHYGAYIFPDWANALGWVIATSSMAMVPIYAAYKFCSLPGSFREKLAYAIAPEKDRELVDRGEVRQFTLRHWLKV
As to the kind of experiment: Dopamine transporter reuptake inhibition assay ([3H]Dopamine uptake). To be noted: CHO-K1 cells with human recombinant dopamine transporter; for inhibition at 0.1 µM: 100 nM, read-out: Inhibition % at 100 nM DA reuptake. Type of experiment: cell-based. The procedure:
Dopamine Transporter Reuptake Inhibition Assay
CHO-K1 cells with human recombinant dopamine transporter were plated. Test compounds were pre-incubated with cells (4×10^5/ml) in modified Tris-HEPES buffer pH 7.1 for 20 minutes at 25° C. and then they were incubated for additional 10 minutes after 50 nM of [^3H]Dopamine was added. A lysate is obtained from solubilized cells and counted to determine [^3H]Dopamine uptake. Reduction of [^3H]Dopamine uptake by 50 percent or more (≧50%) relative to 10 μM nomifensine indicates significant inhibitory activity.

Experiment [4] relates to mice. Description: Forced swimming test in mice (FST). Type of experiment: in vivo. To be noted: Mus musculus, 0.5 h, 30ip, reduction in duration of immobility vs control group, 30 min after administration. Here is the method: Forced swimming Test in Mice (FST)
The Forced swimming test is an animal model based on the rodent's behavioral repertoire for screening drugs with potential antidepressant activity. As in several other models used for this goal, an uncontrollable stress stimulus produces behavioral changes that are sensitive to antidepressant treatment.
The mice were intraperitoneally treated with the test compound with an injection volume of […]. The group treated with 30% PEG400 served as a control group. Thirty minutes following administration, mice were individually forced to swim in a transparent glass vessel (14 cm high, 11.5 cm in diameter) filled with 10 cm of water at 25° C. The total duration of immobility (second) was measured during the last 4 minutes of a single 6-min test session. Mice were considered immobile when they made no further attempts to escape other than the movements necessary to keep their heads above the water. The potent ability of the compounds was determined as percent value of reduction in the duration of immobility comparing to the control group.

In experiment [5] the test system is mice. As to the kind of experiment: Marble burying test. Type of experiment: in vivo. The conditions noted are these: reduction in number of marbles buried vs control group, 30 min after treatment. From the text:
The Marble burying test is a screening tool for putative anxiolytics. In this test, control mice naturally bury glass marbles in the cage bedding and the administration of anxiolytic compounds, including Diazepam, reduces the number of buried marbles. Positive compounds in the marble burying test including selective serotonin reuptake inhibitor may be especially beneficial to obsessive-compulsive disorder.
A group of mice was intraperitoneally treated with test compound dissolved in 30% PEG400 with an injection volume of 10 ml/kg. The group treated with only 30% PEG400 served as a control group. Thirty minutes after the treatment, the animals were individually placed in a polycarbonate cage which was same as used for animal housing with an open top located within a quiet room. Each cage consisted of ⅛ inch corn bedding 5 cm deep. Twenty four clean glass marbles (15 mm diameter) were evenly spaced in four rows of six on top of the bedding. Each mouse was left in the cage for 30 minutes and the number of marbles buried (buried more than ½ or ⅔) was counted. The potent ability of the compounds was determined as percent value of reduction in the number of marbles buried comparing to the control group.

Experiment [6] relates to mice. Description: Acetic acid induced writhing test (AA writhing test). Type of experiment: in vivo. To be noted: Mus musculus, 0.5 h, 30sc, reduction in number of writhing vs control group, 0.8% acetic acid ip 30 min after compound. From the text:
Acetic Acid Induced Writhing Test (AA Writhing Test)
The Acetic acid-induced writhing test is a well-established nociceptive test using a chemical stimulus. Although several animal models of nociceptive tests have been developed to examine and compare the anti-nociceptive effects of different drugs, the anti-nociceptive effects of antidepressants appear to be test-dependent. Indeed, the acetic acid-induced writhing test is more sensitive to antidepressants than other tests using thermal, mechanical or electrical stimuli.
The animals were subcutaneously treated with the test compound with an injection volume of 10 ml/kg. The group treated with 30% PEG400 or saline served as a control group. Thirty minutes later, the mice were intraperitoneally treated with 0.8% (v/v) acetic acid. Each mouse was then placed in a cage for individual observation. The writhing numbers for 10 minutes were counted. The writhe is operationally defined as a contraction of the abdomen followed by stretching of the hind limbs. The potent ability of the compounds was determined as percent value of reduction in the number of writhing comparing to the control group.
On the technique in general: In writhing tests, fewer writhes than in controls are read as antinociception.

T1 sequence (P31645 whole entry): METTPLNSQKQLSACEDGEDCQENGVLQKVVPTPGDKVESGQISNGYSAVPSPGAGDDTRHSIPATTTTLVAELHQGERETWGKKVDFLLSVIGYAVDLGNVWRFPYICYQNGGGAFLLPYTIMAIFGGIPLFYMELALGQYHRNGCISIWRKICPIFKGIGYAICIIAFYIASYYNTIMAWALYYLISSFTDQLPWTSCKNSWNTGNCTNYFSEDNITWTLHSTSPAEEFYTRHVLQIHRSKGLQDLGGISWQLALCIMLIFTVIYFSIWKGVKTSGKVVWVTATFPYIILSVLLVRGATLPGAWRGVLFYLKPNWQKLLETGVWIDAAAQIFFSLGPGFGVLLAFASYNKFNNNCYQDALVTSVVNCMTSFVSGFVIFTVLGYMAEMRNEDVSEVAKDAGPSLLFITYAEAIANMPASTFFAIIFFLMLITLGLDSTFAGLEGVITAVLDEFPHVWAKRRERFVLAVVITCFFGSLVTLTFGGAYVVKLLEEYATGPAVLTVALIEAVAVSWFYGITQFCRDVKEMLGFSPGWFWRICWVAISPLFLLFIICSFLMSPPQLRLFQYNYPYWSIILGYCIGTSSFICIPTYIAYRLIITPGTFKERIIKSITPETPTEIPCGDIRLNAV
T2 sequence (P23975 whole entry): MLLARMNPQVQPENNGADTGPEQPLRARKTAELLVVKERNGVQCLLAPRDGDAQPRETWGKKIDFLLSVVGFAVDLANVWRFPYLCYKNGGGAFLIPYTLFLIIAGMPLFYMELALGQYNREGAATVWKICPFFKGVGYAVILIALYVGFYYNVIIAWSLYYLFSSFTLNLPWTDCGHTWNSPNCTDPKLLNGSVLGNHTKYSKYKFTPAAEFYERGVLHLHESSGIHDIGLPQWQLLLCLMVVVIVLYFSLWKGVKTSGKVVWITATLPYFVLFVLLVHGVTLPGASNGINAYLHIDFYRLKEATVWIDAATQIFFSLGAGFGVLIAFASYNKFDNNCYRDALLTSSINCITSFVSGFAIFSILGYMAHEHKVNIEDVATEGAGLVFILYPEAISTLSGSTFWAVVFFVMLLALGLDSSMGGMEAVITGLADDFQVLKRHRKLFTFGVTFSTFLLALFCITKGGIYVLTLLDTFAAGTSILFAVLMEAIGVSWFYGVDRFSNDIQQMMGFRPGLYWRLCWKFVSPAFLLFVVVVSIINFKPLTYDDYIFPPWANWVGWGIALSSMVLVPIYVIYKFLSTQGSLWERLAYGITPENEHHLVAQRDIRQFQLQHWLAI

Take `CN(C)CCC(c1ccc(Cl)c(Cl)c1)n1ncnn1` (stereo not drawn) [Example 1, [3-(3,4-Dichloro-phenyl)-3-tetrazol-2-yl-propyl]-dimethyl-amine]: the inhibition (commonly the drop in the measured response relative to a control, in per cent) at 0.1 µM in experiment [1] was 27%; in experiment [2], 37%; in experiment [3], 58%. Further, the results for the inhibition in vivo at 30 mg/kg with mice [4] and in the experiment on mice [6] were 24.9% and 55.3%, respectively. Also, in the experiment on mice [5], the “Reduction % at 30ip” value was found to be 54.8%.

As for `CNCCC(c1ccc(Cl)c(Cl)c1)n1ncnn1` (stereo not drawn) [Example 2, [3-(3,4-Dichloro-phenyl)-3-tetrazol-2-yl-propyl]-methyl-amine], in experiment [1], the “Inhibition % at 100 nM 5-HT reuptake” value is on record as 35%. The “Inhibition % at 100 nM NE reuptake” value in experiment [2] was 56%. In addition, the “Inhibition % at 100 nM DA reuptake” value in experiment [3] turned out to be 48%. For the same compound, the inhibition in vivo (in general, how much of the control response was suppressed) at 30 mg/kg in the experiment on mice [4] worked out at 82.4%; with mice [6], 50.3%. Moreover, in the experiment with mice [5], the “Reduction % at 30ip” value was found to be 100%.

On to `CN(C)CCC(c1ccc2ccccc2c1)n1ncnn1` (stereo not drawn) [Example 6, Dimethyl-(3-naphthalen-2-yl-3-tetrazol-2-yl-propyl)-amine], for which the inhibition at 0.1 µM in experiment [1] came out at 41%; in experiment [2], 30%; in experiment [3], 20%. Moreover, the inhibition in vivo at 30 mg/kg with mice [4] was 41.4%; with mice [6], 60.2%. Moreover, in the experiment on mice [5], the “Reduction % at 30ip” value is on record as 87.7%.

`CN(C)CCC(c1ccc2cc(F)ccc2c1)n1ncnn1` (stereo not drawn) [Example 50, [3-(6-Fluoro-naphthalen-2-yl)-3-tetrazol-2-yl-propyl]-dimethyl-amine]: the inhibition at 0.1 µM in experiment [1] was determined as 61%; in experiment [2] it was 12%; in experiment [3] it was 7%. Moreover, the inhibition in vivo at 30 mg/kg in the experiment with mice [4] was found to be 35%; in the experiment on mice [6] it was 53.8%. Also, the “Reduction % at 30ip” value in the experiment with mice [5] is 86.2%.

As for `Cc1nnn(C(CCN(C)C)c2ccc3cc(F)ccc3c2)n1` (stereo not drawn) [Example 51, [3-(6-Fluoro-naphthalen-2-yl)-3-(5-methyl-tetrazol-2-yl)-propyl]-dimethyl-amine], the inhibition at 0.1 µM in experiment [1] was 61%; in experiment [2], 10%; in experiment [3], 6%. Also, the inhibition in vivo at 30 mg/kg amounted to 24.5% in the experiment with mice [4] and 51.4% in the experiment with mice [6]. For the same compound, the “Reduction % at 30ip” value in the experiment with mice [5] turned out to be 72.4%.

With `CNCC[C@@H](c1ccc(Cl)c(Cl)c1)n1nnc(C)n1` [Example 129, (3S)-3-(3,4-dichlorophenyl)-N-methyl-3-(5-methyl-2H-tetrazol-2-yl)propan-1-amine], the figures for the inhibition at 0.1 µM in experiment [1], in experiment [2] and in experiment [3] were 43%, 84% and 62%, respectively. In addition, the inhibition in vivo at 30 mg/kg was 36.7% with mice [4] and 94.4% with mice [6]. Besides, the “Reduction % at 30ip” value in the experiment on mice [5] was 94.3%.

For the compound `CNCCC(c1ccc2cc(OC)ccc2c1)n1nnc(C)n1` (stereo not drawn) [Example 167, [3-(6-Methoxy-naphthalen-2-yl)-3-(5-methyl-tetrazol-2-yl)-propyl]-methyl-amine], the inhibition at 0.1 µM was 82% in experiment [1], 84% in experiment [2] and 3% in experiment [3]. The inhibition in vivo at 30 mg/kg is 17.9% with mice [4] and 52.1% in the experiment on mice [6]. Further, the “Reduction % (at 10ip)” value in the experiment on mice [5] (10ip) is listed as 56.9%.

For `CNCC[C@@H](c1ccc2ccccc2c1)n1nnc(C)n1` [Example 188, (3S)-Methyl-[3-(5-methyl-tetrazol-2-yl)-3-naphthalen-2-yl-propyl]-amine], the inhibition at 0.1 µM in experiment [1] came out at 82%; in experiment [2], 79%; in experiment [3], 7%. The inhibition in vivo at 30 mg/kg in the experiment on mice [4] is 36.7%; with mice [6] it was 39.5%. The “Reduction % at 30ip” value in the experiment with mice [5] came to 70.7%.
